Data taken from US9745283B2, “Uracil derivatives as AXL and c-MET kinase inhibitors” (priority 2011, dated 2017).

Biological target: recombinant human baculovirus-expressed cMET (Homo sapiens (Human), UniProt P08581)
Experiment: C-MET Kinase Assay (HTRF KinEASE)
Assay type: biochemical
Details: average of two or more determinations; read-out: c-MET IC50
Procedure: The cMET kinase assay was performed in 384-well Fluotrac™ 200 HiBase microplates using the HTRF KinEASE™ assay described above for AXL except that the assay volume was reduced to half. Enzyme concentration was 8 ng/mL of recombinant human baculovirus-expressed cMET while the substrate concentrations were 0.1 μM and 0.02 μM for the biotinylated peptide and ATP, respectively. Instead of the Multidrop Combi, the BioRAPTR® FRD microfluidic workstation (Beckman Coulter, Brea, Calif.) was utilized for reagent additions.
Inhibition curves for compounds were generated by plotting percent control activity versus log 10 of the concentration of compound. IC50 values were calculated by nonlinear regression using the sigmoidal dose-response (variable slope) equation in GraphPad Prism as follows: y=bottom+(top−bottom)/(1+10(log IC50−x)*Hill Slope) where y is the % kinase activity at a given concentration of compound, x is the logarithm of the concentration of compound, bottom is the % of control kinase activity at the highest compound concentration tested, and top is the % of control kinase activity at the lowest compound concentration examined. The values for bottom and top were fixed at 0 and 100, respectively.

| SMILES | IC50 [nM] |
| --- | --- |
| C=CCn1cc(C(=O)Nc2ccc(Oc3ccnc4cc(OC)c(OC)cc34)c(F)c2)c(=O)n(CC=C)c1=O [Example 96, 1,3-Diallyl-2,4-dioxo-1,2,3,4-tetrahydro-pyrimidine-5-carboxylic acid [4-(6,7-dimethoxy-quinolin-4-yloxy)-3-fluoro-phenyl]-amide] | 10 to 100 |
| COc1cc2c(Oc3ccc(NC(=O)c4cn(C(C)C)c(=O)n(-c5ccc(F)cc5)c4=O)cc3F)ccnc2cc1O [Example 46, 3-(4-Fluorophenyl)-1-isopropyl-2,4-dioxo-1,2,3,4-tetrahydropyrimidine-5-carboxylic acid [3-fluoro-4-(7-hydroxy-6-methoxyquinolin-4-yloxy)-phenyl]-amide] | < 10 |
| CCn1c(=O)c(C(=O)Nc2ccc(Oc3ccnc4cc(OC)c(OC)cc34)c(F)c2)nn(C)c1=O [Example 123, 4-Ethyl-2-methyl-3,5-dioxo-2,3,4,5-tetrahydro-[1,2,4]triazine-6-carboxylic acid [4-(6,7-dimethoxyquinolin-4-yloxy)-3-fluoro-phenyl]-amide] | 101 to 1000 |
| COc1cc2nccc(Oc3ccc(NC(=O)c4cn(C(C)C)c(=O)n(-c5ccc(F)cc5)c4=O)cc3C(F)(F)F)c2cc1OC [Example 160, 3-(4-Fluoro-phenyl)-1-isopropyl-2,4-dioxo-1,2,3,4-tetrahydro-pyrimidine-5-carboxylic acid [4-(6,7-dimethoxy-quinolin-4-yloxy)-3-trifluoromethyl-phenyl]-amide] | 101 to 1000 |
| CCn1cc(C(=O)Nc2ccc(Oc3ccnc4cc(OC)c(OC)cc34)c(F)c2)c(=O)n(CC)c1=O [Example 93, 1,3-Diethyl-2,4-dioxo-1,2,3,4-tetrahydro-pyrimidine-5-carboxylic acid [4-(6,7-dimethoxy-quinolin-4-yloxy)-3-fluoro-phenyl]-amide] | 10 to 100 |
| COc1cc2nccc(Oc3ccc(NC(=O)c4nn(C)c(=O)n(CCn5cccn5)c4=O)cc3F)c2cc1OC [Example 120, 2-Methyl-3,5-dioxo-4-(2-pyrazol-1-yl-ethyl)-2,3,4,5-tetrahydro-[1,2,4]triazine-6-carboxylic acid [4-(6,7-dimethoxyquinolin-4-yloxy)-3-fluorophenyl]-amide] | 10 to 100 |
| COc1cc2nccc(Oc3ccc(NC(=O)c4cn(C(C)C)c(=O)n(C(C)C)c4=O)cc3F)c2cc1OC [Example 94, 1,3-Diisopropyl-2,4-dioxo-1,2,3,4-tetrahydro-pyrimidine-5-carboxylic acid [4-(6,7-dimethoxy-quinolin-4-yloxy)-3-fluoro-phenyl]-amide] | 10 to 100 |
| COc1cc2nccc(Oc3ccc(NC(=O)c4cn(C(C(C)=O)C(=O)N(C)C)c(=O)n(-c5ccc(F)cc5)c4=O)cc3F)c2cc1OC (stereo not shown) [Example 84, 1-(1-Dimethylcarbamoyl-2-oxo-propyl)-3-(4-fluoro-phenyl)-2,4-dioxo-1,2,3,4-tetrahydro-pyrimidine-5-carboxylic acid [4-(6,7-dimethoxy-quinolin-4-yloxy)-3-fluoro-phenyl]-amide] | 10 to 100 |
| COc1cc2nccc(Oc3ccc(NC(=O)c4cn(CC=C(C)C)c(=O)n(CC=C(C)C)c4=O)cc3F)c2cc1OC [Example 97, 1,3-Bis-(3-methyl-but-2-enyl)-2,4-dioxo-1,2,3,4-tetrahydro-pyrimidine-5-carboxylic acid [4-(6,7-dimethoxy-quinolin-4-yloxy)-3-fluoro-phenyl]-amide] | 101 to 1000 |
| COc1cc2ncnc(Oc3ccc(NC(=O)c4cn(C(C)C)c(=O)n(-c5ccc(F)cc5)c4=O)cc3)c2cc1OC [Example 141, 3-(4-Fluoro-phenyl)-1-isopropyl-2,4-dioxo-1,2,3,4-tetrahydro-pyrimidine-5-carboxylic acid [4-(6,7-dimethoxy-quinazolin-4-yloxy)-phenyl]-amide] | 10 to 100 |
| CCn1cc(C(=O)Nc2ccc(Oc3ccnc4cc(OC)c(OC)cc34)c(C)c2)c(=O)n(-c2ccc(F)cc2)c1=O [Example 148, 1-Ethyl-3-(4-fluoro-phenyl)-2,4-dioxo-1,2,3,4-tetrahydro-pyrimidine-5-carboxylic acid [4-(6,7-dimethoxy-quinolin-4-yloxy)-3-methyl-phenyl]-amide] | 10 to 100 |
| CCCCCn1cc(C(=O)Nc2ccc(Oc3ccnc4cc(OC)c(OC)cc34)c(F)c2)c(=O)n(-c2ccc(F)cc2)c1=O [Example 36, 3-(4-Fluorophenyl)-2,4-dioxo-1-pentyl-1,2,3,4-tetrahydropyrimidine-5-carboxylic acid [4-(6,7-dimethoxyquinolin-4-yloxy)-3-fluorophenyl]-amide] | 10 to 100 |
| COc1cc2nccc(Nc3ccc(NC(=O)c4nn(C(C)C)c(=O)n(-c5ccc(F)cc5)c4=O)cc3)c2cc1OC [Example 136, 4-(4-Fluoro-phenyl)-2-isopropyl-3,5-dioxo-2,3,4,5-tetrahydro-[1,2,4]triazine-6-carboxylic acid [4-(6,7-dimethoxy-quinolin-4-ylamino)-phenyl]-amide] | 101 to 1000 |
| COc1cc2nccc(Oc3ccc(NC(=O)c4cn(CCCOCc5ccccc5)c(=O)n(-c5ccc(F)cc5)c4=O)cc3F)c2cc1OC [Example 13, 1-(3-Benzyloxypropyl)-3-(4-fluorophenyl)-2,4-dioxo-1,2,3,4-tetrahydropyrimidine-5-carboxylic acid [4-(6,7-dimethoxyquinolin-4-yloxy)-3-fluorophenyl]-amide] | 10 to 100 |
| C=CCn1c(=O)c(C(=O)Nc2ccc(Oc3ccnc4cc(OC)c(OC)cc34)c(F)c2)nn(C)c1=O [Example 124, 4-Allyl-2-methyl-3,5-dioxo-2,3,4,5-tetrahydro-[1,2,4]triazine-6-carboxylic acid [4-(6,7-dimethoxy-quinolin-4-yloxy)-3-fluoro-phenyl]-amide] | 10 to 100 |
| CCn1cc(C(=O)Nc2ccc(Oc3ccnc4cc(OC)c(OC)cc34)c(C)c2C)c(=O)n(-c2ccc(F)cc2)c1=O [Example 157, 1-Ethyl-3-(4-fluoro-phenyl)-2,4-dioxo-1,2,3,4-tetrahydro-pyrimidine-5-carboxylic acid [4-(6,7-dimethoxy-quinolin-4-yloxy)-2,3-dimethyl-phenyl]-amide] | 101 to 1000 |
| COc1cc2nccc(Nc3ccc(NC(=O)c4cn(C(C)C)c(=O)n(-c5ccc(F)cc5)c4=O)cc3)c2cc1OC [Example 135, 3-(4-Fluorophenyl)-1-isopropyl-2,4-dioxo-1,2,3,4-tetrahydropyrimidine-5-carboxylic acid [4-(6,7-dimethoxyquinolin-4-ylamino)-phenyl]-amide] | 101 to 1000 |

The remaining lines, values ahead:

| IC50 [nM] | SMILES |
| --- | --- |
| < 10 | CCn1nc(C(=O)Nc2ccc(Oc3ccnc4cc(OC)c(OC)cc34)c(C(F)(F)F)c2)c(=O)n(-c2ccc(F)cc2)c1=O [Example 169, 2-Ethyl-4-(4-fluoro-phenyl)-3,5-dioxo-2,3,4,5-tetrahydro-1,2,4-triazine-6-carboxylic acid [4-(6,7-dimethoxy-quinolin-4-yloxy)-3-trifluoromethyl-phenyl]-amide] |
| 10 to 100 | COc1cc2nccc(Oc3ccc(NC(=O)c4cn(CCOC(C)C)c(=O)n(-c5ccc(F)cc5)c4=O)cc3F)c2cc1OC [Example 12, 3-(4-Fluorophenyl)-1-(2-isopropoxyethyl)-2,4-dioxo-1,2,3,4-tetrahydropyrimidine-5-carboxylic acid [4-(6,7-dimethoxyquinolin-4-yloxy)-3-fluorophenyl]-amide] |
| 10 to 100 | COc1cc2nccc(Oc3ccc(NC(=O)c4cn(C(C)C)c(=O)n(-c5ccc(F)cc5)c4=O)cc3)c2cc1C#N [Example 56, 3-(4-Fluorophenyl)-1-isopropyl-2,4-dioxo-1,2,3,4-tetrahydropyrimidine-5-carboxylic acid [4-(6-cyano-7-methoxy-quinolin-4-yloxy)-phenyl]-amide] |
| 101 to 1000 | COc1cc2c(Oc3ccc(NC(=O)c4cn(C(C)C)c(=O)n(-c5ccc(F)cc5)c4=O)cc3F)ccnc2cc1OCc1ccccc1 [Example 41, 3-(4-Fluorophenyl)-1-isopropyl-2,4-dioxo-1,2,3,4-tetrahydropyrimidine-5-carboxylic acid [4-(7-benzyloxy-6-methoxyquinolin-4-yloxy)-3-fluorophenyl]-amide] |
| 101 to 1000 | COc1cc2nccc(Oc3ccc(NC(=O)c4nn(C)c(=O)n(CC#CCO)c4=O)cc3F)c2cc1OC [Example 118, 4-(4-Hydroxy-but-2-ynyl)-2-methyl-3,5-dioxo-2,3,4,5-tetrahydro-[1,2,4]triazine-6-carboxylic acid [4-(6,7-dimethoxy-quinolin-4-yloxy)-3-fluoro-phenyl]-amide] |
| 10 to 100 | C#CCn1cc(C(=O)Nc2ccc(Oc3ccnc4cc(OC)c(OC)cc34)c(F)c2)c(=O)n(CC#C)c1=O [Example 98, 2,4-Dioxo-1,3-di-prop-2-ynyl-1,2,3,4-tetrahydro-pyrimidine-5-carboxylic acid [4-(6,7-dimethoxy-quinolin-4-yloxy)-3-fluoro-phenyl]-amide] |
| 10 to 100 | COc1cc2c(Oc3ccc(NC(=O)c4cn(C(C)C)c(=O)n(-c5ccc(F)cc5)c4=O)cc3F)ccnc2cc1OCCCN1CCOCC1 [Example 47, 3-(4-Fluorophenyl)-1-isopropyl-2,4-dioxo-1,2,3,4-tetrahydropyrimidine-5-carboxylic acid {3-fluoro-4-[6-methoxy-7-(3-morpholin-4-yl-propoxy)-quinolin-4-yloxy]phenyl}-amide] |
| 10 to 100 | COc1cc2nccc(Oc3ccc(NC(=O)c4cn(CCCCO)c(=O)n(-c5ccc(F)cc5)c4=O)cc3F)c2cc1OC [Example 55, 3-(4-Fluorophenyl)-1-(4-hydroxybutyl)-2,4-dioxo-1,2,3,4-tetrahydropyrimidine-5-carboxylic acid [4-(6,7-dimethoxyquinolin-4-yloxy)-3-fluorophenyl]-amide] |
